Each structure is given as a SMILES string.

This note sets out measurements from patent USRE50082E1, “(5,6-dihydro)pyrimido[4,5-e]indolizines” (NETHERLANDS TRANSLATIONAL RESEARCH CENTER B.V., priority 2014, dated 2024).

This experiment relates to MOLT-4 cancer cell line. Kind of experiment: Cell proliferation assay, MOLT-4 cancer cell line (ATPlite).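 Note: luminescence read-out, percent growth versus compound-free DMSO wells as maximum growth, start-of-incubation signal separating growth from cell death, IC50 from logistic curve fit.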 The experiment is classed as cell-based. As to conditions: Homo sapiens, MOLT-4; 72 hours incubation, ATPlite 1Step; read-out: IC50 MOLT-4 cell proliferation. In general terms: In ATP-based viability assays light output follows the ATP content of the culture.
As for `Cc1cc(N2CCN(C)CC2)ccc1Nc1ncc2c(n1)-n1ccc(C(=O)Nc3c(C)cccc3Br)c1CC2` [Example 65, N-(2-bromo-6-methyl-phenyl)-2-[2-methyl-4-(4-methylpiperazin-1-yl)anilino]-5,6-dihydropyrimido[4,5-e]indolizine-7-carboxamide], the IC50 is < 50 nM. `Cc1cc(N2CCN(C)CC2)ccc1Nc1ncc2c(n1)-n1ccc(C(=O)Nc3c(Cl)cccc3Cl)c1CC2` [Example 66, N-(2,6-dichlorophenyl)-2-[2-methyl-4-(4-methylpiperazin-1-yl)anilino]-5,6-dihydropyrimido[4,5-e]indolizine-7-carboxamide]: the IC50 was < 50 nM. The same measure for `CCc1cccc(CC)c1NC(=O)c1ccn2c1CCc1cnc(Nc3ccc(N4CCN(C)CC4)cc3C)nc1-2` [Example 67, N-(2,6-diethylphenyl)-2-[2-methyl-4-(4-methylpiperazin-1-yl)anilino]-5,6-dihydropyrimido[4,5-e]indolizine-7-carboxamide]: < 50 nM. On to `Cc1cccc(C)c1NC(=O)c1ccn2c1CCc1cnc(Nc3ccc(N4CCOCC4)nc3C)nc1-2` [Example 68, N-(2,6-dimethylphenyl)-2-[(2-methyl-6-morpholino-3-pyridyl)amino]-5,6-dihydropyrimido[4,5-e]indolizine-7-carboxamide], for which the IC50 is < 50 nM. Consider `Cc1cccc(Br)c1NC(=O)c1ccn2c1CCc1cnc(Nc3ccc(N4CCOCC4)nc3C)nc1-2` [Example 70, N-(2-bromo-6-methyl-phenyl)-2-[(2-methyl-6-morpholino-3-pyridyl)amino]-5,6-dihydropyrimido[4,5-e]indolizine-7-carboxamide], for which the IC50 was < 50 nM. Turning to `CCc1cccc(CC)c1NC(=O)c1ccn2c1ccc1cnc(Nc3ccc(N4CCN(C)CC4)cc3OC)nc12` [Example 71, N-(2,6-diethylphenyl)-2-[2-methoxy-4-(4-methylpiperazin-1-yl)anilino]pyrimido[4,5-e]indolizine-7-carboxamide], the IC50 was < 50 nM. With `CCc1cccc(C)c1NC(=O)c1ccn2c1CCc1cnc(Nc3ccc(N4CCN(C)CC4)cc3OC)nc1-2` [Example 72, N-(2-ethyl-6-methyl-phenyl)-2-[2-methoxy-4-(4-methylpiperazin-1-yl)anilino]-5,6-dihydropyrimido[4,5-e]indolizine-7-carboxamide], the IC50 is < 50 nM. Regarding `COc1cc(N2CCN(C)CC2)ccc1Nc1ncc2c(n1)-n1ccc(C(=O)Nc3c(C)cccc3Br)c1CC2` [Example 73, N-(2-bromo-6-methyl-phenyl)-2-[2-methoxy-4-(4-methylpiperazin-1-yl)anilino]-5,6-dihydropyrimido[4,5-e]indolizine-7-carboxamide], the IC50 is < 50 nM. As for `COc1cc(N2CCNCC2)ccc1Nc1ncc2c(n1)-n1ccc(C(=O)Nc3c(C)cccc3Cl)c1CC2` [Example 75, N-(2-chloro-6-methyl-phenyl)-2-(2-methoxy-4-piperazin-1-yl-anilino)-5,6-dihydropyrimido[4,5-e]indolizine-7-carboxamide], the figure is < 50 nM; as for `CCc1cccc(CC)c1NC(=O)c1ccn2c1CCc1cnc(Nc3ccc(N4CCNCC4)cc3OC)nc1-2` [Example 76, N-(2,6-diethylphenyl)-2-(2-methoxy-4-piperazin-1-yl-anilino)-5,6-dihydropyrimido[4,5-e]indolizine-7-carboxamide], < 50 nM. The same measure for `CCc1cccc(CC)c1NC(=O)c1ccn2c1ccc1cnc(Nc3ccc(N4CCNCC4)cc3OC)nc12` [Example 77, N-(2,6-diethylphenyl)-2-(2-methoxy-4-piperazin-1-yl-anilino)pyrimido[4,5-e]indolizine-7-carboxamide]: 50 to 150 nM.

Take `Cc1cc(N2CCNCC2)ccc1Nc1ncc2c(n1)-n1ccc(C(=O)Nc3c(C)cccc3Cl)c1CC2` [Example 78, N-(2-chloro-6-methyl-phenyl)-2-(2-methyl-4-piperazin-1-yl-anilino)-5,6-dihydropyrimido[4,5-e]indolizine-7-carboxamide]: the IC50 was < 50 nM.

Consider `Cc1cc(N2CCNCC2)ccc1Nc1ncc2c(n1)-n1ccc(C(=O)Nc3c(Cl)cccc3Cl)c1CC2` [Example 79, N-(2,6-dichlorophenyl)-2-(2-methyl-4-piperazin-1-yl-anilino)-5,6-dihydropyrimido[4,5-e]indolizine-7-carboxamide], for which the IC50 is < 50 nM. Take `CCc1cccc(CC)c1NC(=O)c1ccn2c1CCc1cnc(Nc3ccc(N4CCNCC4)cc3C)nc1-2` [Example 80, N-(2,6-diethylphenyl)-2-(2-methyl-4-piperazin-1-yl-anilino)-5,6-dihydropyrimido[4,5-e]indolizine-7-carboxamide]: the IC50 was < 50 nM. As for `Cc1cc(N2CCNCC2)ccc1Nc1ncc2c(n1)-n1ccc(C(=O)Nc3c(C)cccc3Br)c1CC2` [Example 81, N-(2-bromo-6-methyl-phenyl)-2-(2-methyl-4-piperazin-1-yl-anilino)-5,6-dihydropyrimido[4,5-e]indolizine-7-carboxamide], the figure is < 50 nM. Turning to `CCc1cccc(C)c1NC(=O)c1ccn2c1CCc1cnc(Nc3ccc(N4CCNCC4)cc3C)nc1-2` [Example 82, N-(2-ethyl-6-methyl-phenyl)-2-(2-methyl-4-piperazin-1-yl-anilino)-5,6-dihydropyrimido[4,5-e]indolizine-7-carboxamide], the IC50 was < 50 nM. Consider `CCc1cccc(CC)c1NC(=O)c1ccn2c1CCc1cnc(Nc3ccc(N4CCOCC4)cc3C)nc1-2` [Example 83, N-(2,6-diethylphenyl)-2-(2-methyl-4-morpholino-anilino)-5,6-dihydropyrimido[4,5-e]indolizine-7-carboxamide], for which the IC50 is < 50 nM. Turning to `COc1cc(OC2CCN(C)C2)ccc1Nc1ncc2c(n1)-n1ccc(C(=O)Nc3c(C)cccc3C)c1CC2` (centres unmarked) [Example 84, N-(2,6-dimethylphenyl)-2-[2-methoxy-4-(1-methylpyrrolidin-3-yl)oxy-anilino]-5,6-dihydropyrimido[4,5-e]indolizine-7-carboxamide], the IC50 is < 50 nM.

For `Cc1cccc(Cl)c1NC(=O)c1ccn2c1CCc1cnc(Nc3ccc(N4CCN(C)CC4)cc3OC(F)F)nc1-2` [Example 86, N-(2-chloro-6-methyl-phenyl)-2-[2-(difluoromethoxy)-4-(4-methylpiperazin-1-yl)anilino]-5,6-dihydropyrimido[4,5-e]indolizine-7-carboxamide], the IC50 was < 50 nM. `CCc1nn(CCOC)c(CC)c1NC(=O)c1ccn2c1CCc1cnc(Nc3ccc(C(=O)N(C)CCCN(C)C)cc3OC)nc1-2` [Example 88, N-[3,5-diethyl-1-(2-methoxyethyl)pyrazol-4-yl]-2-[4-[3-(dimethylamino)propyl-methyl-carbamoyl]-2-methoxy-anilino]-5,6-dihydropyrimido[4,5-e]indolizine-7-carboxamide]: the IC50 fell in the range of 50 to 150 nM.

As to `COCCn1nc(C)c(NC(=O)c2ccn3c2CCc2cnc(Nc4ccc(OC5CNC5)cc4OC)nc2-3)c1C` [Example 91, 2-[4-(Azetidin-3-yloxy)-2-methoxy-anilino]-N-[1-(2-methoxyethyl)-3,5-dimethyl-pyrazol-4-yl]-5,6-dihydropyrimido[4,5-e]indolizine-7-carboxamide], the IC50 fell in the range of 50 to 150 nM.

As for `CCc1n[nH]c(CC)c1NC(=O)c1ccn2c1CCc1cnc(Nc3ccc(OC4CNC4)cc3OC)nc1-2` [Example 92, 2-[4-(Azetidin-3-yloxy)-2-methoxy-anilino]-N-(3,5-diethyl-pyrazol-4-yl)-5,6-dihydropyrimido[4,5-e]indolizine-7-carboxamide], the IC50 fell in the range of 50 to 150 nM. Take `CCc1nn(CCOC)c(CC)c1NC(=O)c1ccn2c1CCc1cnc(Nc3ccc(OC4CNC4)cc3OC)nc1-2` [Example 93, 2-[4-(Azetidin-3-yloxy)-2-methoxy-anilino]-N-[3,5-diethyl-1-(2-methoxyethyl)pyrazol-4-yl]-5,6-dihydropyrimido[4,5-e]indolizine-7-carboxamide]: the IC50 was < 50 nM. The same measure for `COCCn1nc(C)c(NC(=O)c2ccn3c2CCc2cnc(Nc4ccc(-c5c(C)nn(C)c5C)cc4OC)nc2-3)c1C` [Example 94, N-[1-(2-methoxyethyl)-3,5-dimethyl-pyrazol-4-yl]-2-[2-methoxy-4-(1,3,5-trimethylpyrazol-4-yl)anilino]-5,6-dihydropyrimido[4,5-e]indolizine-7-carboxamide]: < 50 nM; for `COCCn1nc(C)c(NC(=O)c2ccn3c2ccc2cnc(Nc4ccc(N5CCNCC5)cc4OC)nc23)c1C` [Example 96, N-[1-(2-methoxyethyl)-3,5-dimethyl-pyrazol-4-yl]-2-(2-methoxy-4-piperazin-1-yl-anilino)pyrimido[4,5-e]indolizine-7-carboxamide]: < 50 nM; for `CCc1n[nH]c(CC)c1NC(=O)c1ccn2c1ccc1cnc(Nc3ccc(N4CCNCC4)cc3OC)nc12` [Example 97, N-(3,5-diethyl-1H-pyrazol-4-yl)-2-(2-methoxy-4-piperazin-1-yl-anilino)pyrimido[4,5-e]indolizine-7-carboxamide]: < 50 nM. For `COc1cc(N2CCNCC2)ccc1Nc1ncc2c(n1)-n1ccc(C(=O)Nc3c(C)nn(CC(C)(C)O)c3C)c1CC2` [Example 98, N-[1-(2-hydroxy-2-methyl-propyl)-3,5-dimethyl-pyrazol-4-yl]-2-(2-methoxy-4-piperazin-1-yl-anilino)-5,6-dihydropyrimido[4,5-e]indolizine-7-carboxamide], the IC50 was 50 to 150 nM.

In the case of `[2H]C([2H])([2H])Oc1cc(N2CCN(C)CC2)ccc1Nc1ncc2c(n1)-n1ccc(C(=O)Nc3c(CC)cccc3CC)c1CC2` [Example 99, N-(2,6-diethylphenyl)-2-[4-(4-methylpiperazin-1-yl)-2-(trideuteriomethoxy)anilino]-5,6-dihydropyrimido[4,5-e]indolizine-7-carboxamide], the IC50 is < 50 nM. In the case of `[2H]C([2H])([2H])Oc1cc(N2CCN(C)CC2)ccc1Nc1ncc2c(n1)-n1ccc(C(=O)Nc3c(CC)nn(CCOC)c3CC)c1CC2` [Example 100, N-[3,5-diethyl-1-(2-methoxyethyl)pyrazol-4-yl]-2-[4-(4-methylpiperazin-1-yl)-2-(trideuteriomethoxy)anilino]-5,6-dihydropyrimido[4,5-e]indolizine-7-carboxamide], the IC50 is < 50 nM.
